Laboratory results published in patent US20240350430A1, “GROWTH INHIBITOR OF METASTATIC HUMAN PROSTATE CANCER CELLS” (Watanabe Oyster Laboratory Co., Ltd., priority 2021, published 2024).

Tests used:
Type in all cases: cell-based, human
[1] = tested on: PC-3 cells; experiment: Intracellular active oxygen (ROS) production, H2DCFDA, PC-3 cells; details: DHMBA 1, 10, 100, and 1000 μM, 24 hours
Method: (§1) The intracellular active oxygen (reactive oxygen species: ROS) was measured using an ROS measurement kit (MAK144-1 Kit, Sigma-Aldrich) using pro-fluorescent substrate H2DCFDA. The PC-3 and DU-145 cells (the cell number of 2.5×10^4/per well, in 0.1 ml of a culture fluid per hole using a 96-hole plate) were cultured in a DMEM culture fluid (containing 10% of FBS, 1% of P/S, and 1% of fungizone) containing the DHMBA (0.1, 1, 10, 100, or 1000 μM) under 5% of CO2, at 37° C., for 24 hours. After the culture, the cells were washed with PBS, 0.1 ml and 25 μM of an H2DCFDA solution was added, and incubation was performed for 45 minutes. Afterwards, the cells were washed with PBS, and as the amount of active oxygen produced in the cells, fluorescence intensity was measured using a fluorescence measurement plate reader at a wavelength Ex/Em=485/535 nm.
(§2) The PC-3 and DU-145 cells (2.5×10^4/0.1 ml of a culture fluid per hole using a 96-hole plate) were cultured under 5% of CO2, at 37° C., for 24 hours in a DMEM culture fluid (containing 10% of FBS, 1% of P/S, and 1% of fungizone) containing the DHMBA (0.1, 1, 10, 100, or 1000 μM). […] After the cells were washed with PBS, a fluorescence intensity of the cells was measured using a fluorescence measurement plate reader at a wavelength Ex/Em=485/535 nm. […]

[2] = tested on: DU-145 cells; experiment: Intracellular active oxygen (ROS) production, H2DCFDA, DU-145 cells; details: DHMBA 1, 10, 100, and 1000 μM, 24 hours
Method: as §1, §2

[3] = tested on: PC-3 cells; experiment: Cell invasion, Transwell chambers with Matrigel, PC-3 cells; details: DHMBA 1, 10, or 100 μM, 24 hours
Method: (§3) The cell invasion activity of the prostate cancer PC-3 and DU-145 cells was measured using Transwell chambers (the catalogue number CLS3464-48EA of Corning, Life Sciences, USA). A chamber was placed in each well of the 24-hole plate. 50 μl of Matrigel (Corning Life Sciences, Cat. No. 356230, USA) was added to the upper surface of the chambers. After drying the gel, 500 μl of a suspension of the PC-3 or DU-145 cells (the cell number of 2.5×10^4/ml, the DMEM not containing FBS) was added to the upper surface of the gel. This cell suspension contained the DHMBA (0, 1, 10, or 100 μM). After the addition of the cell suspension to the chambers, it was incubated for one hour to cause the cells to adhere. 0.75 ml of the culture fluid not containing the FBS and a culture fluid containing 10% of FBS were added to the lower surface of the chambers. The cells on the plate were cultured under 5% of CO2, 95% of air, at 37° C., for 24 hours. […] After the drying, the number of the stained cells was counted by the microscope (Olympus MTV-3, Olympus Corporation, Tokyo, Japan). […]
(§4) The cell invasion activities of the prostate cancer PC-3 and DU-145 cells were measured using the Transwell chambers. […] After the drying, the number of the stained cells was counted by the microscope (Olympus MTV-3, Olympus Corporation, Tokyo, Japan). […]

[4] = tested on: DU-145 cells; experiment: Cell invasion, Transwell chambers with Matrigel, DU-145 cells; details: DHMBA 1, 10, or 100 μM, 24 hours
Method: as §3, §4

SMILES: COc1c(O)cc(CO)cc1O [DHMBA, 3,5-dihydroxy-4-methoxybenzyl alcohol]
- amount of intracellular active oxygen production [1]: significant inhibition
- amount of intracellular active oxygen production [2]: significant inhibition
- invasion [3]: significantly inhibited
- invasion [4]: significantly inhibited
